{"source": "patent US7732484B2", "about": "“Use of selective adenosine A1 receptor allosteric enhancers to manipulate angiogenesis” (University of Virginia Patent Foundation, priority 2000, dated 2010)", "key": {"[1]": {"tested_on": "chicken chorioallantoic membrane (CAM)", "assay": "Windowed CAM assay, Elvax pellet, vascular density index", "assay_type": "in vivo", "settings": "Elvax pellet with 3 mg adenosine, in place for seven days, 12-15 eggs per group, FIG. 5", "protocol": "Fertile White Leghorn chicken eggs were obtained from Truslow Farms (Chesterfield, Mo.). Eggs were incubated at 37° for 7 days, then a 1.5 cm window was cut into each egg over the CAM. Pellets were applied to the CAMs and the windows closed with cellophane tape. Eggs were incubated until day 14 when the CAMs were fixed. […] The pellets were placed on the CAM where there were a few vessels present and were left in place for seven days. The CAMs then were fixed in 10% buffered formalin and vessels were counted under 20× magnification using a Nikon stereomicroscope. The quantitation of vascular number is presented as vascular density index VDI that was an adaptation of a method described by Harris-Hooker (Harris-Hooker et al., Neovascular Responses Induced by Cultured Aortic Endothelial Cells, J. Cell. Phys., 114, 302-310, 1983). A plastic cover slip inscribed with 4, 5, 6, and 8 mm diameter concentric circles was centered over the adenosine pellet on the formalin-fixed CAM. The vascular density was judged by counting the numbers of the vessels which intersected the circles. This technique allowed counting of vessels down to 10-12 u in diameter. The positioning of the pellets on the CAM was randomized. […] Adenosine was delivered by other means as well."}, "[2]": {"tested_on": "chicken chorioallantoic membrane (CAM)", "assay": "CAM assay, drug applied daily on filter paper disc, vessels counted", "assay_type": "in vivo", "settings": "for angiogenic response in the CAM (vessel density at edge of disk): 100 μl daily for 7 days on filter paper disk", "protocol": "Adenosine receptor subtype selective agonists stimulate angiogenesis to varying degrees in the CAM. […] In these studies, sterile filter paper disks were used to apply drug or vehicle to the CAM of eggs windowed after 7 days of incubation. The circular disk was 7 mm diameter. The agonist and antagonist drugs were delivered daily for 7 days in a volume of 100 μl placed onto the disks. On day 14 the CAMs were formalin fixed. The vessel density was determined by counting the vessels that intersected with the edge of the disks. Each bar represents data from between 13 and 19 eggs, with the exception of the bar for xanthine amine congener (XAC) which represents only four eggs. […] It is possible that some adenosine receptors may stimulate angiogenesis, while others, particularly the A2A receptor, may inhibit it. […] The 100 nM doses used should have allowed some preservation of subtype selectivity for the ligands.\nFertile White Leghorn chicken eggs are obtained from Truslow Labs (Maryland) and incubated until day 7 post-fertilization at 37° C. The eggs were automatically rotated by the incubator. On day 7 the eggs were candled to check for viability. The eggshell surface was cleaned with betadine and 70% isopropanol. A window 1.5×1.5 cm was cut into each egg over the CAM. The window was covered with clear cellophane tape and the eggs incubated at 37° C. overnight. The following day a sterile filter paper disc was applied to the CAM for the daily delivery of drugs or vehicle in a volume of 100 μl. CAMs were fixed on day 14 and vessels counted using the aforementioned method of Harris-Hooker et al.\nCPA at 100 nM with or without 1 μM WRC-0571 was applied to filter paper discs on developing CAMs as described above.\nHere, PD enhances the effects of endogenous adenosine on the chicken A1 receptor in the CAM. PD at a concentration of 100 μM, or vehicle, was delivered to the CAM on a filter paper disc using a protocol identical to that used for adenosine agonists. […] A small effect such as this in the absence of applied ligand or ischemia/hypoxia (which would increase the endogenous adenosine levels) is expected. Because it is a rapidly growing tissue, the CAM probably has higher levels of adenosine than more quiescent tissues, resulting in a measurable effect."}, "[3]": {"tested_on": "chicken chorioallantoic membrane (CAM)", "assay": "CAM assay, drug applied daily on filter paper disc, vessels counted", "assay_type": "in vivo", "settings": "20 nM CPA alone, FIG. 10"}, "[4]": {"biological_target": "T1, human A3 over the A1 receptor (Homo sapiens, UniProt P0DMS8)", "T1 sequence (P0DMS8 1-318)": "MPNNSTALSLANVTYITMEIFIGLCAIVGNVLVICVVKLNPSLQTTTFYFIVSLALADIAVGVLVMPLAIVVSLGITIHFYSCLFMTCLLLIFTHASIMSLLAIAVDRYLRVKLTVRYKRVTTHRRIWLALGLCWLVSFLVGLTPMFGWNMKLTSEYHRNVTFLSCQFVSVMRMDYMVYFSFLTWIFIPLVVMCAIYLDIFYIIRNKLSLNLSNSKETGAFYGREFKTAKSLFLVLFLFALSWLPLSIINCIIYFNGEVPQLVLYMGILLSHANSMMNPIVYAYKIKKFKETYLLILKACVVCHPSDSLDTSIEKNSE", "settings": "cited from earlier work"}, "[5]": {"tested_on": "rat mesentery", "assay": "Rat mesentery angiogenesis, intraperitoneal Alzet osmotic pump infusion", "assay_type": "in vivo", "settings": "chronic infusion by Alzet pump into the peritoneal cavity, one week, FIG. 11", "protocol": "Drug application into rat mesentery using infusion pumps. Alzet osmotic pumps were filled with drug or vehicle to a volume of 200 μl . The abdominal cavities of anesthetized 150 g Sprague-Dawley rats were incised and pumps implanted into the intraperitoneal cavity. The pumps delivered the drug at 1.0 μl/hr. After one week mesenteric samples were taken between vascular arcades along the length of the small bowel. Specimens were fixed and stained using a BS:lectin stain.\nThe control mesentery is shown on the left, PD 81,723—treated on the right. The chronic infusion was an advantage because the model is not an ischemic one, so steady long term administration of the PD 81,723 may help to augment the effects of lower concentrations of endogenous adenosine."}}, "data": [{"molecule": "Nc1ncnc2c1ncn2[C@@H]1O[C@H](CO)[C@@H](O)[C@H]1O", "note": "[Adenosine, adenosine]", "values": [{"measurement": "angiogenesis in the CAM model (vascular density index)", "setting": "[1]", "value": "stimulated angiogenesis"}]}, {"molecule": "CCNC(=O)[C@H]1O[C@@H](n2cnc3c(N)nc(NCCc4ccc(CCC(=O)O)cc4)nc32)[C@H](O)[C@@H]1O", "note": "[CGS21680]", "values": [{"measurement": "angiogenic response in the CAM (vessel density at edge of disk)", "setting": "[2]; 100 nM doses, FIG. 6", "value": "No angiogenic response"}]}, {"molecule": "OC[C@H]1O[C@@H](n2cnc3c(NC4CCCC4)ncnc32)[C@H](O)[C@@H]1O", "note": "[CPA, Cyclopentyladenosine]", "values": [{"measurement": "angiogenic response in the CAM (vessel density at edge of disk)", "setting": "[2]; 100 nM doses, FIG. 6", "value": "positive angiogenic response"}, {"measurement": "stimulation of angiogenesis in the CAM", "setting": "[3]", "value": "did not stimulate angiogenesis"}]}, {"molecule": "CCOC(=O)C1=C(C)NC(c2ccccc2)=C(C(=O)OCc2ccccc2)C1C#Cc1ccccc1", "note": "(centres unmarked) [MRS 1191]", "values": [{"measurement": "selectivity for the human A3 over the A1 receptor", "setting": "[4]", "value": "> 1300", "unit": "fold"}]}, {"molecule": "CCNC(=O)[C@H]1O[C@@H](n2cnc3c(N)ncnc32)[C@H](O)[C@@H]1O", "note": "[NECA]", "values": [{"measurement": "angiogenic response in the CAM (vessel density at edge of disk)", "setting": "[2]; 100 nM doses, FIG. 6", "value": "positive angiogenic response"}]}, {"molecule": "Cc1sc(N)c(C(=O)c2cccc(C(F)(F)F)c2)c1C", "note": "[PD 81,723]", "values": [{"measurement": "stimulation of angiogenesis in the CAM", "setting": "[2]; 100 μM on filter paper disc versus vehicle, FIG. 8", "value": 10, "unit": "%"}, {"measurement": "stimulation of angiogenesis in rat mesentery", "setting": "[5]", "value": "Stimulation of angiogenesis"}]}, {"molecule": "CC(C)N(C)c1nc2c(N[C@@H]3CC4CC3CC4O)ncnc2n1C", "note": "(some centres unmarked) [WRC-0571]", "values": [{"measurement": "block of the angiogenic effect of CPA in the CAM", "setting": "[2]; 1 μM WRC-0571 with 100 nM CPA, FIG. 7", "value": "completely blocked"}, {"measurement": "block of the effects of endogenous adenosine on angiogenesis in the CAM", "setting": "[2]; FIG. 8", "value": "blocked the effects of endogenous adenosine"}, {"measurement": "block of C17-stimulated angiogenesis in the CAM", "setting": "[2]; FIG. 9", "value": "blocked"}, {"measurement": "block of the effects of PD 81,723 in the CAM", "setting": "[2]; with PD at 100 μM, FIG. 8", "value": "completely blocked"}]}, {"molecule": "CCCn1c(=O)c2[nH]c(-c3ccc(OCC(=O)NCCN)cc3)nc2n(CCC)c1=O", "note": "[XAC, xanthine amine congener]", "values": [{"measurement": "inhibition of baseline angiogenesis in the CAM", "setting": "[2]; 100 nM doses, daily for 7 days on filter paper disk, four eggs, FIG. 6", "value": "did not inhibit baseline angiogenesis"}]}, {"molecule": "CNC(=O)[C@H]1O[C@@H](n2cnc3c(NCc4cccc(I)c4)ncnc32)[C@H](O)[C@@H]1O", "note": "[m-MECA, N^6-iodobenzyl-5′-N-methyl-carboxamidoadenosine]", "values": [{"measurement": "angiogenic response in the CAM (vessel density at edge of disk)", "setting": "[2]; 100 nM doses, FIG. 6", "value": "positive angiogenic response"}]}]}
